Experimental data reported in PubChem BioAssay (NCI).
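Five compound concentrations were applied to cells in 96-well plates for 48 hours; endpoints were derived by simple linear interpolation of the resulting dose-response curve. Here, GI50 denotes the concentration required for 50% inhibition of growth. TGI is the concentration that stops growth completely.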

How the values were obtained:
Experiment in all cases: NCI tumour cell line growth inhibition, 48 h
MDA-MB-231 breast = test system: MDA-MB-231 breast
NCI-H226 lung = test system: NCI-H226 lung
UACC-257 melanoma = test system: UACC-257 melanoma
SF-539 CNS = test system: SF-539 CNS
MCF7 breast = test system: MCF7 breast
A549 NSCLC = test system: A549 NSCLC
HCT-116 colon = test system: HCT-116 colon
SF-295 CNS = test system: SF-295 CNS
HOP-62 NSCLC = test system: HOP-62 NSCLC
EKVX NSCLC = test system: EKVX NSCLC
HCT-15 colon = test system: HCT-15 colon
HCC-2998 colon = test system: HCC-2998 colon
T-47D breast = test system: T-47D breast
SNB-75 CNS = test system: SNB-75 CNS
SW-620 colon = test system: SW-620 colon
M14 melanoma = test system: M14 melanoma
SK-MEL-28 melanoma = test system: SK-MEL-28 melanoma
TK-10 renal = test system: TK-10 renal
K-562 leukemia = test system: K-562 leukemia
ACHN renal = test system: ACHN renal
SK-MEL-5 melanoma = test system: SK-MEL-5 melanoma
786-0 renal = test system: 786-0 renal
SNB-19 CNS = test system: SNB-19 CNS
BT-549 breast = test system: BT-549 breast
OVCAR-4 ovarian = test system: OVCAR-4 ovarian
HL-60(TB) leukemia = test system: HL-60(TB) leukemia
MDA-MB-435 = test system: MDA-MB-435
UO-31 renal = test system: UO-31 renal
COLO 205 colon = test system: COLO 205 colon
SR leukemia = test system: SR leukemia
NCI/ADR-RES ovarian = test system: NCI/ADR-RES ovarian
A498 renal = test system: A498 renal
RXF 393 renal = test system: RXF 393 renal
MALME-3M melanoma = test system: MALME-3M melanoma
SF-268 CNS = test system: SF-268 CNS
SK-OV-3 ovarian = test system: SK-OV-3 ovarian
OVCAR-3 ovarian = test system: OVCAR-3 ovarian
UACC-62 melanoma = test system: UACC-62 melanoma
NCI-H23 lung = test system: NCI-H23 lung
LOX IMVI melanoma = test system: LOX IMVI melanoma
NCI-H522 lung = test system: NCI-H522 lung
IGROV1 ovarian = test system: IGROV1 ovarian
SN12C renal = test system: SN12C renal
OVCAR-8 ovarian = test system: OVCAR-8 ovarian
OVCAR-5 ovarian = test system: OVCAR-5 ovarian
CCRF-CEM leukemia = test system: CCRF-CEM leukemia
U251 CNS = test system: U251 CNS
HOP-92 NSCLC = test system: HOP-92 NSCLC
NCI-H460 lung = test system: NCI-H460 lung
DU-145 prostate = test system: DU-145 prostate
PC-3 prostate = test system: PC-3 prostate
KM12 colon = test system: KM12 colon
RPMI-8226 leukemia = test system: RPMI-8226 leukemia
MOLT-4 leukemia = test system: MOLT-4 leukemia
HT29 colon = test system: HT29 colon
HS 578T breast = test system: HS 578T breast
SK-MEL-2 melanoma = test system: SK-MEL-2 melanoma
CAKI-1 renal = test system: CAKI-1 renal

With `Cc1ccc(Cl)cc1Nc1nc(C(F)(F)F)ccc1C(=O)N1CCN(c2ccc(F)cc2)CC1` the GI50 (MDA-MB-231 breast) was 10.3 µM, the TGI (MDA-MB-231 breast) was 24.4 µM and the GI50 (NCI-H226 lung) was 15.5 µM. It also gave a TGI (NCI-H226 lung) of 31.3 µM, a GI50 (UACC-257 melanoma) of 19.7 µM and a TGI (UACC-257 melanoma) of 46.5 µM. It also gave a GI50 (SF-539 CNS) of 14.8 µM, a TGI (SF-539 CNS) of 30.2 µM and a GI50 (MCF7 breast) of 11.7 µM. It also gave a TGI (MCF7 breast) of 38.7 µM, a GI50 (A549 NSCLC) of 15.3 µM and a TGI (A549 NSCLC) of 37.1 µM. It also gave a GI50 (HCT-116 colon) of 11.9 µM, a TGI (HCT-116 colon) of 26.3 µM and a GI50 (SF-295 CNS) of 15.6 µM. It also gave a TGI (SF-295 CNS) of 32.5 µM, a GI50 (HOP-62 NSCLC) of 14.7 µM and a TGI (HOP-62 NSCLC) of 29.8 µM. For the same compound, the GI50 (EKVX NSCLC) was 12.8 µM, the TGI (EKVX NSCLC) was 45.4 µM and the GI50 (HCT-15 colon) was 13.2 µM. The TGI (HCT-15 colon) was 29.3 µM, the GI50 (HCC-2998 colon) was 12.7 µM and the TGI (HCC-2998 colon) was 26 µM. It also gave a GI50 (T-47D breast) of 6.25 µM, a TGI (T-47D breast) of 42.6 µM and a TGI (SNB-75 CNS) of 14.2 µM. For the same compound, the GI50 (SW-620 colon) was 12.2 µM, the TGI (SW-620 colon) was 24.6 µM and the GI50 (M14 melanoma) was 15 µM. It also gave a TGI (M14 melanoma) of 31.3 µM, a GI50 (SK-MEL-28 melanoma) of 15.6 µM and a TGI (SK-MEL-28 melanoma) of 29.3 µM. The GI50 (TK-10 renal) was 11.2 µM, the TGI (TK-10 renal) was 26.4 µM and the GI50 (K-562 leukemia) was 9.53 µM. For the same compound, the TGI (K-562 leukemia) was 30 µM, the GI50 (ACHN renal) was 11.8 µM and the TGI (ACHN renal) was 47.7 µM. The GI50 (SK-MEL-5 melanoma) was 12 µM, the TGI (SK-MEL-5 melanoma) was 24.3 µM and the GI50 (786-0 renal) was 14.7 µM. For the same compound, the TGI (786-0 renal) was 29.4 µM, the GI50 (SNB-19 CNS) was 14.9 µM and the TGI (SNB-19 CNS) was 30.5 µM. For the same compound, the GI50 (BT-549 breast) was 12.8 µM, the TGI (BT-549 breast) was 26.3 µM and the GI50 (OVCAR-4 ovarian) was 10.8 µM. For the same compound, the TGI (OVCAR-4 ovarian) was 27.9 µM, the GI50 (HL-60(TB) leukemia) was 12.7 µM and the TGI (HL-60(TB) leukemia) was 37.8 µM. For the same compound, the GI50 (MDA-MB-435) was 14.2 µM, the TGI (MDA-MB-435) was 29.6 µM and the GI50 (UO-31 renal) was 4.49 µM. The TGI (UO-31 renal) was 22.5 µM, the GI50 (COLO 205 colon) was 15.8 µM and the TGI (COLO 205 colon) was 30.2 µM. The GI50 (SR leukemia) was 17.6 µM, the TGI (SR leukemia) was 80.6 µM and the GI50 (NCI/ADR-RES ovarian) was 13.3 µM. The TGI (NCI/ADR-RES ovarian) was 36.7 µM, the GI50 (A498 renal) was 6.03 µM and the TGI (A498 renal) was 20.2 µM. For the same compound, the GI50 (RXF 393 renal) was 11.2 µM, the TGI (RXF 393 renal) was 29.9 µM and the GI50 (MALME-3M melanoma) was 11.1 µM. It also gave a TGI (MALME-3M melanoma) of 23.4 µM, a GI50 (SF-268 CNS) of 15.8 µM and a TGI (SF-268 CNS) of 36.5 µM. For the same compound, the GI50 (SK-OV-3 ovarian) was 15.6 µM, the TGI (SK-OV-3 ovarian) was 36.1 µM and the GI50 (OVCAR-3 ovarian) was 10.7 µM. For the same compound, the TGI (OVCAR-3 ovarian) was 24 µM, the GI50 (UACC-62 melanoma) was 11.5 µM and the TGI (UACC-62 melanoma) was 24.1 µM. It also gave a GI50 (NCI-H23 lung) of 10.2 µM, a TGI (NCI-H23 lung) of 24.2 µM and a GI50 (LOX IMVI melanoma) of 11.9 µM. The TGI (LOX IMVI melanoma) was 24.6 µM, the GI50 (NCI-H522 lung) was 12.3 µM and the TGI (NCI-H522 lung) was 30.2 µM. It also gave a GI50 (IGROV1 ovarian) of 0.21 µM, a TGI (IGROV1 ovarian) of 27.2 µM and a GI50 (SN12C renal) of 15 µM. It also gave a TGI (SN12C renal) of 28.6 µM, a GI50 (OVCAR-8 ovarian) of 16.6 µM and a TGI (OVCAR-8 ovarian) of 50.2 µM. For the same compound, the GI50 (OVCAR-5 ovarian) was 12.1 µM, the TGI (OVCAR-5 ovarian) was 30.1 µM and the GI50 (CCRF-CEM leukemia) was 15.1 µM. For the same compound, the TGI (CCRF-CEM leukemia) was 53.5 µM, the GI50 (U251 CNS) was 12.5 µM and the TGI (U251 CNS) was 25.5 µM. For the same compound, the GI50 (HOP-92 NSCLC) was 12.5 µM, the TGI (HOP-92 NSCLC) was 30.4 µM and the GI50 (NCI-H460 lung) was 16 µM. It also gave a TGI (NCI-H460 lung) of 36.9 µM, a GI50 (DU-145 prostate) of 17.4 µM and a TGI (DU-145 prostate) of 36.6 µM. The GI50 (PC-3 prostate) was 10.2 µM, the TGI (PC-3 prostate) was 33.3 µM and the GI50 (KM12 colon) was 11.3 µM. It also gave a TGI (KM12 colon) of 23.4 µM, a GI50 (RPMI-8226 leukemia) of 15.5 µM and a TGI (RPMI-8226 leukemia) of 52.6 µM. For the same compound, the GI50 (MOLT-4 leukemia) was 9.91 µM, the TGI (MOLT-4 leukemia) was 46.6 µM and the GI50 (HT29 colon) was 10.7 µM. For the same compound, the TGI (HT29 colon) was 23.9 µM, the GI50 (HS 578T breast) was 4.31 µM and the TGI (HS 578T breast) was 22.3 µM. It also gave a GI50 (SK-MEL-2 melanoma) of 16.1 µM, a TGI (SK-MEL-2 melanoma) of 37.1 µM and a GI50 (CAKI-1 renal) of 1.53 µM. The TGI (CAKI-1 renal) was 14.2 µM.
